Results from US9182402B2, “Hepsin inhibitors” (Fred Hutchinson Cancer Research Center, priority 2008, dated 2015).
Like-named read-outs stand apart in the source and are kept apart here.

Columns and labels:
recombinant human hepsin = recombinant human hepsin (Homo sapiens, UniProt P05981); experiment: Hepsin activity assay (chromogenic substrate pyroGlu-Pro-Arg-pNA); assay type: biochemical
Method: D. Hepsin, Trypsin and Thrombin Activity Assays.
Purified recombinant hepsin was preincubated with indicated compounds for 30 minutes at room temperature.

trypsin = trypsin (Sus scrofa (Pig), UniProt P00761); experiment: Trypsin activity assay (chromogenic substrate); settings: read-out: IC50 trypsin; 30 minutes preincubation at room temperature, substrate at Km
Method: (§1) Titration of the chromogenic substrate pryoGlu-Pro-Arg-pNA was performed for each enzyme and the resulting substrate-velocity data fit with nonlinear regression using GraphPad Prism 4 software (GraphPad, La Jolla, Calif.) to calculate Vmax and Km. […] The reactions were then followed using a kinetic microplate reader and the linear rates of increase in absorbance at 405 nm expressed as percent activity (100%×vi/vo). At least three independent experiments were performed for each enzyme. The IC50 was calculated by fitting the data to a four-parameter non-linear regression using GraphPad Prism 4.

LNCaP cells = experiment: Cell cytotoxicity assay (CellTiter-Glo, ATP-luciferase); settings: 20 μM, 72 hours, compounds replenished daily
HepG2 cells = experiment: as above; settings: HepG2, 20 μM, 72 hours, compounds replenished daily
[1] = test system: MP-1 mouse prostate epithelial cell line; experiment: as above; settings: MP-1, 20 μM, 72 hours, compounds replenished daily
thrombin = thrombin (Bos taurus (Bovine), UniProt P00735); experiment: Thrombin activity assay (chromogenic substrate); assay type: biochemical; settings: for IC50: 30 minutes preincubation at room temperature, substrate at Km
Method: as §1

hepsin = hepsin (Mus musculus (Mouse), UniProt O35453); experiment: Immunoblot of hepsin expression levels in compound treated HEK 293FT cells; settings: 20 and 50 μM, 24 hours
Method: The membrane was blocked overnight in TBST buffer containing: 5% non-fat milk, 2% normal goat serum in 50 mM Tris-HCl, pH 8.0, 100 mM NaCl, 0.1% Tween-20. The membrane was then incubated in 3% BSA in TBST with polyclonal anti-hepsin antibody (1:1000) for two hours at room temperature, washed 3×5 minutes with TBST and incubated for one hour in 0.1% BSA in TBST containing goat-anti-rabbit-HRP secondary antibody (1:2000), washed 3×5 minutes in TBST and developed with ECL (Pierce Chemicals, Rockford, Ill.). […] Expression levels were quantified by densitometry using ImageQuantTL™ (GE Healthcare Life Sciences, Piscataway, N.J.).
As treatment with chemical compounds may alter hepsin expression level (and thereby impact pericellular proteolytic activity), hepsin levels in drug-treated cells were determined via immunoblotting (FIG. 6B).

[2] = target: full-length wild-type murine hepsin expressed in HEK 293FT cells (Mus musculus (Mouse), UniProt O35453); experiment: Hepsin-dependent pericellular serine proteolytic activity assay; assay type: cell-based; settings: for attenuation of hepsin-dependent pericellular proteolytic activity: 50 μM, activity/expression level relative to vehicle; for attenuation of hepsin-dependent pericellular proteolytic activity / pericellular proteolytic activity (in words): overnight incubation; for pericellular proteolytic activity (in words): 20 and 50 μM
Method: Loading was verified via immunoblot against β-actin.
G. Pericellular Serine Proteolytic Activity Assay. […] After 3.5 hrs, transfection media was replaced with fresh media containing 20 μM or 50 μM of test compounds or solvent control (0.5% DMSO in media) and cells incubated overnight. Attached cell monolayers were then washed twice with PBS and once with assay buffer (5% CO2 equilibrated phenol-red free DMEM with 1% BSA) to remove residual serum proteases/inhibitors. Cells were then incubated in assay buffer containing 20 or 50 μM compounds for 30 minutes at 37° C. […] Percent inhibition was calculated as residual activity relative to solvent control. Matched samples were used in parallel to determine toxicity of the test compounds to HEK 293FT cells in this system using the CellTiter-Glo™ assay.
D. Inhibition of Hepsin-Dependent Pericellular Proteolytic Activity. To determine whether the identified compounds were able to inhibit cell-based hepsin activity, an assay was devised to measure hepsin-dependent pericellular serine proteolytic activity (FIG. 5A) (Raynaud et al., 1992 J Cell Physiol 151:378; Bauvois et al., 1990 Eur. J. Immunol. 20:459; Bauvois et al., 1992 Eur. J. Immunol. 22:923; Sameni et al., 2000 Neoplasia 2:496; McGowen et al., 2000 Canc. Res. 60:4771). […] Attached cell monolayers were incubated in assay buffer with peptide substrate and the reactions were allowed to proceed at 37° C. […] Activity levels were adjusted by altering hepsin expression levels to within the linear range of detection. A positive linear rate of activity was observed only for wild-type hepsin-expressing cells and was abolished in the presence of the broad spectrum serine protease inhibitor PEFAbloc.

[3] = 30 minutes preincubation at room temperature, substrate at Km

Sequence of full-length wild-type murine hepsin expressed in HEK 293FT cells (O35453 other isoform, or with tags, fused parts or gaps): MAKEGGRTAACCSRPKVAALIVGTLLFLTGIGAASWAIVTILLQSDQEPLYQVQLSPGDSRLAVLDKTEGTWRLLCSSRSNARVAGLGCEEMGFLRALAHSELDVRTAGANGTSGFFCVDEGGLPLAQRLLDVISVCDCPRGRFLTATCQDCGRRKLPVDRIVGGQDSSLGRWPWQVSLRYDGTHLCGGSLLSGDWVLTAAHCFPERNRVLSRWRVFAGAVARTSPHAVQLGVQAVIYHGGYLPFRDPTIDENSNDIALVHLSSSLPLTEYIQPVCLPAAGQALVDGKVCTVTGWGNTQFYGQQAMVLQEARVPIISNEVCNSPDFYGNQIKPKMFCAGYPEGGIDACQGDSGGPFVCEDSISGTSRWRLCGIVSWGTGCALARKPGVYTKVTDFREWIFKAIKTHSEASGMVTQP
Sequence of trypsin (P00761 9-231): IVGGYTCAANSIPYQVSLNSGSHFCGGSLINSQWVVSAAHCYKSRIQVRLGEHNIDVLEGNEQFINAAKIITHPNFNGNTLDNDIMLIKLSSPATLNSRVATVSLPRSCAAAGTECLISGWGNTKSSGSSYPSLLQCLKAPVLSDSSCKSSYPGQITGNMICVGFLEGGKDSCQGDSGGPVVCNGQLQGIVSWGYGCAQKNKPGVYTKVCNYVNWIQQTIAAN
Sequence of recombinant human hepsin (P05981 1-162 limits assumed): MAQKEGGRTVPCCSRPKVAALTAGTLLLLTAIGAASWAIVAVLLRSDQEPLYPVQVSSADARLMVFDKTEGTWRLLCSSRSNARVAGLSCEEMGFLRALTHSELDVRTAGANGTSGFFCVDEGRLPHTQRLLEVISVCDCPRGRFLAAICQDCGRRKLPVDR
Sequence of recombinant human hepsin (P05981 163-417 limits assumed): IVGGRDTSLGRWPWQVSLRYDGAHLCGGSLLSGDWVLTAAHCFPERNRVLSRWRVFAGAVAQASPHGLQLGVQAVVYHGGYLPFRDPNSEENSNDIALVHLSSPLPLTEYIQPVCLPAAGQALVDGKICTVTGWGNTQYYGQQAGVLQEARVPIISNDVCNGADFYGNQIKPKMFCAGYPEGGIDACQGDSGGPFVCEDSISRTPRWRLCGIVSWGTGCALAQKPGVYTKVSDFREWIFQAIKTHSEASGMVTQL

## O=C1C=CC(=O)N1c1cccc([N+](=O)[O-])c1 [Compound 1, 1-(3-nitrophenyl)-1H-pyrrole-2,5-dione]
Recombinant human hepsin; [3]
  IC50: 280 ± 70 nM
trypsin
  IC50: 3.88 ± 0.85 µM
LNCaP cells
  cellular toxicity (cell viability): substantial toxicity
HepG2 cells
  cellular toxicity (cell viability): without affecting
[1]
  cellular toxicity (cell viability): without affecting
thrombin; at 1 μM
  activation of thrombin activity: approximately 3 fold

## Cc1ccc(OCc2nnc(NC(=O)Nc3cccc(Cl)c3)s2)cc1C [Compound 2, N-(3-chlorophenyl)-N′-{5-[(3,4-dimethylphenoxy)methyl]-1,3,4-thiadiazol-2-yl}urea]
Recombinant human hepsin; [3]
  IC50: 760 ± 260 nM
trypsin
  IC50: > 20 µM
LNCaP cells
  cellular toxicity (cell viability): substantial toxicity
HepG2 cells
  cellular toxicity (cell viability): without affecting
[1]
  cellular toxicity (cell viability): without affecting
thrombin
  IC50: > 20 µM

## O=C1NC(=O)N(c2cccc(Br)c2)C(=O)/C1=C/c1c[nH]c2ccccc12 [Compound 3]
Recombinant human hepsin; [3]
  IC50: 1930 ± 390 nM
trypsin
  IC50: 7.63 ± 1.51 µM
LNCaP cells
  cellular toxicity (cell viability): limited or no cytotoxicity
HepG2 cells
  cellular toxicity (cell viability): limited or no cytotoxicity
hepsin
  hepsin expression levels: without substantially affecting hepsin expression levels
[1]
  cellular toxicity (cell viability): limited or no cytotoxicity
[2]
  attenuation of hepsin-dependent pericellular proteolytic activity: approximately 50%
  pericellular proteolytic activity (in words): attenuated pericellular proteolytic activity in a dose dependent manner
thrombin
  IC50: > 20 µM

## Cc1cccc(C2Nc3cccc4cccc(c34)N2)c1 [Compound 4, 2-(3-methylphenyl)-2,3-dihydro-1H-perimidine]
Recombinant human hepsin; [3]
  IC50: 350 ± 120 nM
trypsin
  IC50: 19.6 ± 2.7 µM
LNCaP cells
  cellular toxicity (cell viability): limited or no cytotoxicity
HepG2 cells
  cellular toxicity (cell viability): limited or no cytotoxicity
hepsin
  hepsin expression levels: without substantially affecting hepsin expression levels
[1]
  cellular toxicity (cell viability): limited or no cytotoxicity
[2]
  attenuation of hepsin-dependent pericellular proteolytic activity: approximately 60%
  pericellular proteolytic activity (in words): attenuated pericellular proteolytic activity in a dose dependent manner
thrombin
  IC50: > 20 µM

## O=[N+]([O-])c1ccc(C2Nc3c(cccc3C(F)(F)F)C3C=CCC32)cc1 (stereo not drawn) [Compound 5, 4-(4-nitrophenyl)-6-(trifluoromethyl)-3a,4,5,9b-tetrahydro-3H-cyclopenta[c]quinoline]
Recombinant human hepsin; [3]
  IC50: 570 ± 190 nM
trypsin
  IC50: 31.2 ± 2 µM
LNCaP cells
  cellular toxicity (cell viability): limited or no cytotoxicity
HepG2 cells
  cellular toxicity (cell viability): limited or no cytotoxicity
hepsin
  hepsin expression levels: without substantially affecting hepsin expression levels
[1]
  cellular toxicity (cell viability): limited or no cytotoxicity
[2]
  attenuation of hepsin-dependent pericellular proteolytic activity: approximately 60%
  pericellular proteolytic activity (in words): attenuated pericellular proteolytic activity in a dose dependent manner
thrombin
  IC50: > 20 µM

## O=[N+]([O-])c1cccc(C2Nc3ccc(Cl)cc3C3C=CCC32)c1 (stereo not drawn) [Compound 6, 8-chloro-4-(3-nitrophenyl)-3a,4,5,9b-tetrahydro-3H-cyclopenta[c]quinoline]
Recombinant human hepsin; [3]
  IC50: 980 ± 200 nM
trypsin
  IC50: 10.2 ± 1.5 µM
LNCaP cells
  cellular toxicity (cell viability): limited or no cytotoxicity
HepG2 cells
  cellular toxicity (cell viability): limited or no cytotoxicity
[1]
  cellular toxicity (cell viability): limited or no cytotoxicity
thrombin
  IC50: > 20 µM

## O=c1oc(-c2cccc(F)c2)nc2ccc(Cc3ccc4nc(-c5cccc(F)c5)oc(=O)c4c3)cc12 [Compound 7, 6,6′-methylenebis[2-(3-fluorophenyl)-4H-3,1-benzooxazin-4-one]]
Recombinant human hepsin; [3]
  IC50: 2310 ± 530 nM
trypsin
  IC50: 13.1 ± 3 µM
LNCaP cells
  cellular toxicity (cell viability): limited or no cytotoxicity
HepG2 cells
  cellular toxicity (cell viability): limited or no cytotoxicity
[1]
  cellular toxicity (cell viability): limited or no cytotoxicity
thrombin
  IC50: > 20 µM

## O=C(Nc1ccc(Cl)c(Cl)c1)Nc1nnc(-c2ccc(Br)cc2)s1 [Compound 8, N-[5-(4-bromophenyl)-1,3,4-thiadiazol-2-yl]-N′-(3,4-dichlorophenyl)urea]
Recombinant human hepsin; [3]
  IC50: 720 ± 200 nM
trypsin
  IC50: 1.71 ± 0.21 µM
LNCaP cells
  cellular toxicity (cell viability): limited or no cytotoxicity
HepG2 cells
  cellular toxicity (cell viability): limited or no cytotoxicity
[1]
  cellular toxicity (cell viability): limited or no cytotoxicity
thrombin
  IC50: > 20 µM

## Cc1csc(-c2cc3ccc(OCc4c(F)c(F)c(F)c(F)c4F)cc3oc2=O)n1 [Compound 9, 3-(4-methyl-1,3-thiazol-2-yl)-7-[(pentafluorobenzyl)oxy]-2H-chromen-2-one]
Recombinant human hepsin; [3]
  IC50: 980 ± 120 nM
trypsin
  IC50: 20.9 ± 7.5 µM
LNCaP cells
  cellular toxicity (cell viability): limited or no cytotoxicity
HepG2 cells
  cellular toxicity (cell viability): limited or no cytotoxicity
[1]
  cellular toxicity (cell viability): limited or no cytotoxicity
thrombin
  IC50: > 20 µM

## CC1(C)CC(=O)c2c(oc3c(Br)cc(NS(=O)(=O)c4ccccc4)cc23)C1 [Compound 10, N-(4-bromo-7,7-dimethyl-9-oxo-6,7,8,9-tetrahydrodibenzo[b,d]furan-2-yl)benzenesulfonamide]
Recombinant human hepsin; [3]
  IC50: 930 ± 130 nM
trypsin
  IC50: 7.72 ± 1.1 µM
LNCaP cells
  cellular toxicity (cell viability): limited or no cytotoxicity
HepG2 cells
  cellular toxicity (cell viability): limited or no cytotoxicity
[1]
  cellular toxicity (cell viability): limited or no cytotoxicity
thrombin
  IC50: > 20 µM

## COc1cccc(OCCOc2cccc(/C=c3\sc4nc5ccccc5n4c3=O)c2)c1 [Compound 11, 2-{3-[2-(3-methoxyphenoxy)ethoxy]benzylidene}[1,3]thiazolo[3,2-a]benzimidazol-3(2H)-one]
Recombinant human hepsin
  IC50: 1310 ± 440 nM
trypsin
  IC50: 2 ± 0.33 µM
LNCaP cells
  cellular toxicity (cell viability): limited or no cytotoxicity
HepG2 cells
  cellular toxicity (cell viability): limited or no cytotoxicity
[1]
  cellular toxicity (cell viability): limited or no cytotoxicity

## Oc1nc2cc(Cl)c(Cl)cc2nc1O [Compound 16, 2,3-dihydroxy-6,7-dichloroquinoxaline]
Recombinant human hepsin; [3]
  IC50: 750 ± 90 nM
trypsin
  IC50: 2.42 ± 0.29 µM
LNCaP cells
  cellular toxicity (cell viability): limited or no cytotoxicity
HepG2 cells
  cellular toxicity (cell viability): limited or no cytotoxicity
[1]
  cellular toxicity (cell viability): limited or no cytotoxicity
thrombin
  IC50: > 20 µM

## Cl.NCCc1ccc(S(=O)(=O)F)cc1 [PEFAbloc, reference compound]
[2]; wild-type hepsin-expressing cells, 30 minutes incubation
  pericellular proteolytic activity in the presence of inhibitor: abolished
